Values after ≈ are worked out from the molar mass of the structure shown. Values joined by “and” are separate entries in the source; they are usually repeats but may differ in a detail not shown here. Equal values may be shown once.
Assays:
Experiment in all cases: ≥ marks a high value that may be exact or a test limit, other limits are often not marked, values filed in µg/mL are converted to µM
[1] = system: Aspergillus flavus
[2] = system: Bacillus megaterium
[3] = system: Candida albicans ATCC 90028
[4] = system: Candida parapsilosis ATCC 22019
[5] = system: Enterococcus faecalis ATCC 29212
[6] = system: Escherichia coli ATCC 25922
[7] = system: Escherichia coli ATCC 35218
[8] = system: Pseudomonas aeruginosa ATCC 27853
[9] = system: Saccharomyces cerevisiae
[10] = system: Staphylococcus aureus ATCC 25923
[11] = system: Bacillus licheniformis X39
[12] = system: Enterococcus faecalis 981
[13] = system: Psychrobacter faecalis X29
[14] = system: Rhodococcus rhodochrous X15
[15] = system: Serratia rubidaea X01
[16] = system: Staphylococcus carnosus KHS
[17] = system: Acinetobacter baumannii I NM8
[18] = system: Escherichia coli ATCC 25726
[19] = system: Klebsiella pneumoniae ATCC 700603
[20] = system: Candida albicans ATCC 2002
[21] = system: Enterobacter cloacae ATCC 13047
[22] = system: Escherichia coli 117
[23] = system: Escherichia coli 218
[24] = system: Escherichia coli 37
[25] = system: Escherichia coli K-12
[26] = system: Klebsiella pneumoniae
[27] = system: Pseudomonas aeruginosa CMCCB 1010
[28] = system: Pseudomonas aeruginosa
[29] = system: Shigella dysenteriae
[30] = system: Staphylococcus aureus 37
[31] = system: Staphylococcus aureus USA 300
[32] = system: Bacillus megaterium ATCC 17749
[33] = system: Candida sp.
[34] = system: Escherichia coli 363 ATCC 11775
[35] = system: Fusarium oxysporum
[36] = system: Micrococcus luteus ATCC 4698
[37] = system: Salmonella enterica subsp. enterica serovar Newport
[38] = system: Staphylococcus aureus ATCC 25293
[39] = system: Staphylococcus epidermidis ATCC 12228
[40] = system: Vibrio alginolyticus ATCC 17749
[41] = system: Vibrio metschnikovii NCTC 8483
[42] = system: Helicobacter pylori NCTC 11637
[43] = system: Staphylococcus aureus ATCC 2592

`CC[C@H](C)[C@H](NC(=O)[C@H](Cc1cnc[nH]1)NC(=O)[C@H](CO)NC(=O)[C@H](CC(C)C)NC(=O)[C@@H](N)Cc1ccccc1)C(=O)N[C@@H](C)C(=O)NCC(=O)N[C@@H](Cc1ccccc1)C(=O)N[C@@H](CC(C)C)C(=O)N[C@@H](CO)C(=O)N[C@@H](CC(N)=O)C(=O)N[C@@H](CC(C)C)C(=O)N[C@@H](Cc1ccccc1)C(=O)O` [FLSHIAGFLSNLF] was tested, and the MIC [1] was 10 µM (≈ 14.7 µg/mL), the MIC [2] was 4 µM (≈ 5.86 µg/mL) and the MIC [3] was 20 µM (≈ 29.3 µg/mL). The MIC [4] was 20 µM (≈ 29.3 µg/mL), the MIC [5] was over 80 µM and the MIC [6] was 161 µM (≈ 236 µg/mL). The MIC [7] was at least 80 µM, the MIC [8] was over 161 µM and the MIC [9] was 10 µM (≈ 14.7 µg/mL). The MIC [10] was 10 µM (≈ 14.7 µg/mL).

`CC[C@H](C)[C@H](NC(=O)CNC(=O)[C@H](Cc1ccccc1)NC(=O)[C@H](CCC(=O)O)NC(=O)[C@H](CCCCN)NC(=O)[C@H](CC(C)C)NC(=O)[C@H](CCCCN)NC(=O)[C@H](CC(=O)O)NC(=O)[C@H](CC(C)C)NC(=O)[C@@H](NC(=O)CN)[C@@H](C)CC)C(=O)N[C@@H](CO)C(=O)N[C@@H](C)C(=O)N[C@@H](C)C(=O)N[C@@H](CCCN=C(N)N)C(=O)NCC(=O)N[C@H](C(=O)N[C@@H](C)C(=O)N[C@@H](CCC(N)=O)C(=O)N[C@@H](CO)C(=O)N[C@@H](CC(C)C)C(=O)N[C@@H](CC(C)C)C(=O)N[C@@H](CC(N)=O)C(=O)N[C@H](C(=O)N[C@@H](C)C(=O)N[C@@H](CO)C(=O)N[C@H]1CSSC[C@@H](C(=O)O)NC(=O)[C@H]([C@@H](C)O)NC(=O)[C@H](CCCCN)NC(=O)[C@H](C)NC(=O)[C@H](CC(C)C)NC(=O)[C@H](CCCCN)NC1=O)[C@@H](C)O)C(C)C` [GILDKLKEFGISAARGVAQSLLNTASCKLAKTC] showed an MIC [11] of at least 75 µM, an MIC [12] of at least 37.5 µM and an MIC [6] of 150 µM (≈ 511 µg/mL). It also gave an MIC [13] of 2.3 µM (≈ 7.83 µg/mL), an MIC [14] of 2.3 µM (≈ 7.83 µg/mL) and an MIC [15] of 2.3 µM (≈ 7.83 µg/mL). For the same molecule, the MIC [10] was 37.5 µM (≈ 128 µg/mL) and the MIC [16] was at least 37.5 µM.

In the case of `CC[C@H](C)[C@H](NC(=O)[C@@H](NC(=O)[C@H](CO)NC(=O)[C@H](C)NC(=O)[C@H](CC(C)C)NC(=O)CN)[C@@H](C)O)C(=O)NCC(=O)N[C@@H](CO)C(=O)N[C@@H](CC(C)C)C(=O)N[C@@H](CC(C)C)C(=O)NCC(=O)N[C@@H](CCCCN)C(=O)N[C@@H](Cc1ccccc1)C(=O)N[C@@H](C)C(=O)N[C@@H](CCCCN)C(=O)NCC(=O)NCC(=O)N[C@@H](C)C(=O)N[C@@H](CCC(N)=O)C(=O)N[C@@H](C)C(=O)N[C@@H](Cc1ccccc1)C(=O)N[C@@H](CC(C)C)C(=O)N[C@@H](CCC(N)=O)C(=O)N1CCC[C@H]1C(=O)N[C@@H](CCCCN)C(=O)O` [GLASTIGSLLGKFAKGGAQAFLQPK], the MIC [17] was 25 µM (≈ 61.5 µg/mL), the MIC [3] was at least 50 µM and the MIC [18] was at least 160 µM. The MIC [19] was over 50 µM and the MIC [10] was 80 µM and 100 µM.

`CC[C@H](C)[C@H](N)C(=O)N[C@@H](CC(N)=O)C(=O)N[C@@H](CC(C)C)C(=O)N[C@@H](CCCCN)C(=O)N[C@@H](C)C(=O)N[C@H](C(=O)N[C@@H](C)C(=O)N[C@@H](C)C(=O)N[C@@H](CC(C)C)C(=O)N[C@@H](C)C(=O)N[C@@H](CCCCN)C(=O)N[C@@H](CCCCN)C(=O)N[C@@H](CC(C)C)C(=O)N[C@@H](CC(C)C)C(=O)O)[C@@H](C)CC` [INLKAIAALAKKLL] gave an MIC [20] of 6.76 µM (≈ 10 µg/mL), an MIC [3] of 6.76 µM (≈ 10 µg/mL) and an MIC [4] of 27 µM (≈ 40 µg/mL). It also gave an MIC [21] of 13.5 µM (≈ 20 µg/mL), an MIC [5] of 1.69 µM (≈ 2.5 µg/mL) and an MIC [22] of 27 µM (≈ 40 µg/mL). The MIC [23] was 13.5 µM (≈ 20 µg/mL), the MIC [24] was 6.76 µM (≈ 10 µg/mL) and the MIC [6] was 13.5 µM (≈ 20 µg/mL). It also gave an MIC [25] of 25 µM (≈ 37 µg/mL), an MIC [19] of 6.76 µM (≈ 10 µg/mL) and an MIC [26] of 6.76 µM (≈ 10 µg/mL). It also gave an MIC [8] of 3.38 µM (≈ 5 µg/mL), an MIC [27] of 27 µM (≈ 40 µg/mL) and an MIC [28] of 3.38 µM (≈ 5 µg/mL). For the same molecule, the MIC [29] was 3.38 µM (≈ 5 µg/mL), the MIC [30] was 6.76 µM (≈ 10 µg/mL) and the MIC [10] was 3.38 µM (≈ 5 µg/mL). It also gave an MIC [31] of at least 100 µM.

For `CC(C)C[C@@H]1NC(=O)[C@H](CCCN=C(N)N)NC(=O)[C@H](Cc2cnc[nH]2)NC(=O)[C@H](Cc2c[nH]c3ccccc23)NC(=O)CNC(=O)CNC(=O)[C@@H](NC(=O)[C@H](Cc2ccc(O)cc2)NC(=O)CNC(=O)CNC(=O)[C@@H](N)CO)CSSC[C@@H](C(=O)N[C@H](C(=O)N[C@@H](CO)C(=O)N[C@@H](Cc2ccc(O)cc2)C(=O)N[C@@H](CCCN=C(N)N)C(=O)N[C@@H](CO)C(=O)NCC(=O)O)[C@@H](C)O)NC(=O)[C@H](CCCN=C(N)N)NC1=O` [SGGYCGGWHRLRCTSYRSG], the MIC [32] was at least 34 µM, the MIC [33] was 8 µM (≈ 16.8 µg/mL) and the MIC [34] was at least 62 µM. For the same molecule, the MIC [35] was 13 µM (≈ 27.3 µg/mL), the MIC [36] was 16 µM (≈ 33.6 µg/mL) and the MIC [37] was at least 75 µM. For the same molecule, the MIC [38] was 17 µM (≈ 35.7 µg/mL), the MIC [39] was 41 µM (≈ 86.2 µg/mL) and the MIC [40] was at least 75 µM. The MIC [41] was at least 75 µM.

Molecule `CC[C@H](C)[C@H](NC(=O)[C@H](CCC(N)=O)NC(=O)[C@H](CCCCN)NC(=O)[C@H](Cc1c[nH]c2ccccc12)NC(=O)[C@H](CO)NC(=O)[C@H](CCC(N)=O)NC(=O)[C@@H]1CCCN1C(=O)[C@H](CC(C)C)NC(=O)[C@H](CCCCN)NC(=O)[C@H](C)NC(=O)[C@H](CCC(=O)O)NC(=O)[C@H](CCCCN)NC(=O)[C@@H](NC(=O)[C@H](CCSC)NC(=O)[C@@H](NC(=O)[C@@H](NC(=O)[C@@H](NC(=O)[C@@H](N)CO)[C@@H](C)CC)[C@@H](C)CC)[C@@H](C)O)[C@@H](C)O)C(=O)N[C@@H](C)C(=O)N[C@H]1CSSC[C@@H](C(=O)O)NC(=O)[C@H]([C@@H](C)O)NC(=O)[C@H](CC(N)=O)NC(=O)[C@H](Cc2ccc(O)cc2)NC(=O)[C@H](CC(C)C)NC(=O)[C@H](CCCN=C(N)N)NC1=O` [SIITMTKEAKLPQSWKQIACRLYNTC] has an MIC [20] of 9.91 µM (≈ 30 µg/mL), an MIC [6] of 19.8 µM (≈ 60 µg/mL) and an MIC [42] of 9.91 µM (≈ 30 µg/mL). It also gave an MIC [29] of 19.8 µM (≈ 60 µg/mL) and an MIC [43] of 4.95 µM (≈ 15 µg/mL).

— DBAASP
